The values that follow come from patent US5747452A, “Method of modulating tumor cell migration using fibronectin type III peptides” (La Jolla Cancer Research Foundation, priority 1995, dated 1998).

This assay concerns C11 CHO cells. Description: Migration assay (in vitro wounding assay). The class given is cell-based, Chinese Hamster. The note with it: 50 μM for 48 hours. On the procedure: Migration was tested by using Chinese Hamster Ovary (CHO) cells in an in vitro "wounding" assay as described previously (Giancotti and Ruoslahti, Cell 60,849(1990)). CHO cells are commercially available and have ATCC number CRL 9096. A3 is an overexpressor of the α5 β1 integrin created by cDNA transfection as described in the article cited above. C11 is a control-transfected line expressing only the endogenous CHO α5 β1. As described in Example XIV below, cells were grown in the absence or presence of 50 μM III1 -C for 48 hours, then the culture was "wounded" by removing cells from the plastic dish by scraping the dish with a plastic pipette tip. The migration of the cells into the "wound" path was monitored by photography at various times.
It is known from previous work (see Giancotti and Ruoslahti, (1990), supra) that there is a correlation between an increase in fibronectin matrix assembly and the decrease in tumorigenic phenotype. Since the polypeptides of the present invention including the recombinant polypeptides are able to modulate fibronectin matrix assembly, these proteins were tested to determine if they could modulate the tumorigenic phenotype of cells. […] As a comparison, A3 CHO cells, which do overexpress α5 β1, fibronectin receptors and are less tumorigenic, were grown in parallel. […]

With “III1 -C: Sequence ID No. 11; recombinant protein, residues 600-674 of human fibronectin, from pGEX-2T”, the “effect on cell migration” value is given as “retardation of their migration”.
